Source: US20260356817A1, “AMINOPYRIMIDINE AND AMINOTRIAZINE DERIVATIVES AS MYC PROTEIN MODULATORS” (Sanford Burnham Prebys Medical Discovery Institute, priority 2022, published 2026)
Like-named read-outs stand apart in the source and are kept apart here.

Tested on: Myc
Assay: Myc inhibition assay: Myc expression per cell by anti-Myc immunofluorescence, high-content imaging
Type: cell-based, human (patient-derived medulloblastoma xenograft cells)
Conditions: medulloblastoma PDX cells, 4 h
From the text: To identify Myc inhibitors, cells isolated from patient-derived orthotopic xenografts (PDXs) from patients with Myc-driven medulloblastoma were used. Specifically, PDX cells were propagated by transplantation directly into the cerebellum of immunodeficient (NSG) mice and were never passaged in vitro in order to maintain properties of the tumor from which they were derived. Tumor tissues were isolated from tumor-bearing animals, dissociated into a single-cell suspension, resuspended in serum-free media, and immediately plated in 384 well plates. After overnight recovery, compounds were added to each well, and cells were incubated for 4 hours before being fixed and stained with anti-Myc antibodies and with DAPI to label nuclei. Cells were then analyzed using high-content imaging to determine the levels of Myc expression per cell and IC50 values of the compounds.

[1] = Table 1, read-out: IC50 (Myc inhibition)
[2] = Table 2, read-out: MYC Inhibition IC50

Row | SMILES | IC50 [1] | IC50 [2]
1 | c1ccc(-n2cc(Nc3nccc(-c4ccc5[nH]cnc5c4)n3)cn2)nc1 [Compound 35, 4-(1H-benzo[d]imidazol-5-yl)-N-(1-(pyridin-2-yl)-1H-pyrazol-4-yl)pyrimidin-2-amine] | < 0.2 µM | < 0.2 µM
2 | FC(F)(F)c1cccc(Nc2cc(-c3ccc4[nH]cnc4c3)ccn2)c1 [Compound 52, 4-(1H-benzo[d]imidazol-5-yl)-N-(3-(trifluoromethyl)phenyl)pyridin-2-amine] | 1 to 10 µM | 1 to 10 µM
3 | FC(F)(F)c1cccc(Nc2nccc(-c3cnc4cc[nH]c4c3)n2)c1 [Compound 132, 4-(1H-pyrrolo[3,2-b]pyridin-6-yl)-N-(3-(trifluoromethyl)phenyl)pyrimidin-2-amine] | 0.2 to 1 µM | 0.2 to 1 µM
4 | COc1ccc(Oc2ccnc(Nc3cccc(C(F)(F)F)c3)n2)cn1 [Compound 109, 4-((6-methoxypyridin-3-yl)oxy)-N-(3-(trifluoromethyl)phenyl)pyrimidin-2-amine] | 1 to 10 µM | 1 to 10 µM
5 | c1cc(-c2ccc3[nH]cnc3c2)nc(NC2CCOCC2)n1 [Compound 101, 4-(1H-benzo[d]imidazol-5-yl)-N-(tetrahydro-2H-pyran-4-yl)pyrimidin-2-amine] | 1 to 10 µM | 1 to 10 µM
6 | CC(C)c1ccccc1Nc1nccc(-c2ccc3[nH]cnc3c2)n1 [Compound 64, 4-(1H-benzo[d]imidazol-5-yl)-N-(2-isopropylphenyl)pyrimidin-2-amine] | 1 to 10 µM | 1 to 10 µM
7 | c1cc(-c2ccc3[nH]cnc3c2)nc(Nc2cnoc2)n1 [Compound 56, N-(4-(1H-benzo[d]imidazol-5-yl)pyrimidin-2-yl)isoxazol-4-amine] | 0.2 to 1 µM | 0.2 to 1 µM
8 | c1ccc(-c2cccc(Nc3nccc(-c4ccc5[nH]cnc5c4)n3)c2)cc1 [Compound 70, N-([1,1′-biphenyl]-3-yl)-4-(1H-benzo[d]imidazol-5-yl)pyrimidin-2-amine] | < 0.2 µM | < 0.2 µM
9 | Cc1ccccc1-c1cccc(Nc2nccc(-c3ccc4[nH]cnc4c3)n2)c1 [Compound 33, 4-(1H-benzo[d]imidazol-5-yl)-N-(2′-methyl-[1,1′-biphenyl]-3-yl)pyrimidin-2-amine] | 0.2 to 1 µM | 0.2 to 1 µM
10 | FC(F)(F)c1cccc(Nc2nccc(-c3ccc4scnc4c3)n2)c1 [Compound 76, 4-(benzo[d]thiazol-5-yl)-N-(3-(trifluoromethyl)phenyl)pyrimidin-2-amine] | 1 to 10 µM | 1 to 10 µM
11 | Cc1ccc(Nc2nccc(-c3ccc4[nH]cnc4c3)n2)cc1 [Compound 103, 4-(1H-benzo[d]imidazol-5-yl)-N-(p-tolyl)pyrimidin-2-amine] | 0.2 to 1 µM | 0.2 to 1 µM
12 | CCc1ccccc1Nc1nccc(-c2ccc3[nH]cnc3c2)n1 [Compound 80, 4-(1H-benzo[d]imidazol-5-yl)-N-(2-ethylphenyl)pyrimidin-2-amine] | 1 to 10 µM | 1 to 10 µM
13 | c1csc(Nc2nccc(-c3ccc4[nH]cnc4c3)n2)c1 [Compound 84, 4-(1H-benzo[d]imidazol-5-yl)-N-(thiophen-2-yl)pyrimidin-2-amine] | 1 to 10 µM | 1 to 10 µM
14 | Cn1cnc2ccc(-c3ccnc(Nc4cccc(C(F)(F)F)c4)n3)cc21 [Compound 41, 4-(1-methyl-1H-benzo[d]imidazol-6-yl)-N-(3-(trifluoromethyl)phenyl)pyrimidin-2-amine] | < 0.2 µM | < 0.2 µM
15 | COc1cc(Nc2ccnc(Nc3cccc(F)c3)n2)ccn1 [Compound 122, N^2-(3-fluorophenyl)-N^4-(2-methoxypyridin-4-yl)pyrimidine-2,4-diamine] | 1 to 10 µM | 1 to 10 µM
16 | CN1CCN(c2nccc(-c3ccc4[nH]cnc4c3)n2)CC1 [Compound 74, 5-(2-(4-methylpiperazin-1-yl)pyrimidin-4-yl)-1H-benzo[d]imidazole] | 1 to 10 µM | 1 to 10 µM
17 | Cn1nccc1CNc1nccc(-c2ccc3[nH]cnc3c2)n1 [Compound 82, 4-(1H-benzo[d]imidazol-5-yl)-N-((1-methyl-1H-pyrazol-5-yl)methyl)pyrimidin-2-amine] | 1 to 10 µM | 1 to 10 µM
18 | FC(F)(F)c1cccc(Nc2nccc(-c3cn4ccnc4cn3)n2)c1 [Compound 107, 4-(Imidazo[1,2-a]pyrazin-6-yl)-N-(3-(trifluoromethyl)phenyl)pyrimidin-2-amine] | 1 to 10 µM | 1 to 10 µM
19 | Cc1cc(C)cc(Nc2nccc(-c3ccc4[nH]cnc4c3)n2)c1 [Compound 16, 4-(1H-benzo[d]imidazol-5-yl)-N-(3,5-dimethylphenyl)pyrimidin-2-amine] | < 0.2 µM | < 0.2 µM
20 | CC(C)Nc1nccc(-c2ccc3[nH]cnc3c2)n1 [Compound 104, 4-(1H-benzo[d]imidazol-5-yl)-N-isopropylpyrimidin-2-amine] | 1 to 10 µM | 1 to 10 µM
21 | FC(F)(F)c1cccc(Nc2nccc(NCCc3cnc[nH]3)n2)c1 [Compound 111, N^4-(2-(1H-Imidazol-4-yl)ethyl)-N^2-(3-(trifluoromethyl)phenyl)pyrimidine-2,4-diamine] | 1 to 10 µM | 1 to 10 µM
22 | CN(C)C(=O)c1cccc(Nc2nccc(-c3ccc4[nH]cnc4c3)n2)c1 [Compound 18, 3-((4-(1H-benzo[d]imidazol-5-yl)pyrimidin-2-yl)amino)-N,N-dimethylbenzamide] | 1 to 10 µM | 1 to 10 µM

Further lines, results first:

Row | IC50 [1] | IC50 [2] | SMILES
23 | 10 to 100 µM | 10 to 100 µM | Oc1cc(-c2ccnc(Oc3ccccc3)n2)ccn1 [Compound 232, 4-(2-phenoxypyrimidin-4-yl)pyridin-2-ol]
24 | 10 to 100 µM | 10 to 100 µM | CN(c1cccc(F)c1)c1nccc(-c2ccnc(O)c2)n1 [Compound 237, 4-(2-((3-fluorophenyl)(methyl)amino)pyrimidin-4-yl)pyridin-2-ol]
25 | 1 to 10 µM | 1 to 10 µM | Oc1cncc(-c2ccnc(Nc3ccccc3)n2)c1 [Compound 219, 5-(2-(phenylamino)pyrimidin-4-yl)pyridin-3-ol]
26 | 10 to 100 µM | 10 to 100 µM | COc1cc(-c2ccnc(Nc3ccncn3)n2)ccn1 [Compound 177, 4-(2-methoxypyridin-4-yl)-N-(pyrimidin-4-yl)pyrimidin-2-amine]
27 | < 0.2 µM | < 0.2 µM | FC(F)(F)c1cccc(Nc2nccc(-c3cnc4nc[nH]c4c3)n2)c1 [Compound 161, 4-(1H-imidazo[4,5-b]pyridin-6-yl)-N-(3-(trifluoromethyl)phenyl)pyrimidin-2-amine]
28 | 0.2 to 1 µM | 0.2 to 1 µM | Oc1ccc(-c2ccnc(Nc3cccc(C(F)(F)F)c3)n2)cn1 [Compound 211, 5-(2-((3-(trifluoromethyl)phenyl)amino)pyrimidin-4-yl)pyridin-2-ol]
29 | 10 to 100 µM | 10 to 100 µM | Oc1cc(-c2ccnc(Nc3ccnc(C(F)(F)F)c3)n2)ccn1 [Compound 156, 4-(2-((2-(trifluoromethyl)pyridin-4-yl)amino)pyrimidin-4-yl)pyridin-2-ol]
30 | 10 to 100 µM | 10 to 100 µM | COc1ccnc(-c2ccnc(Nc3cccc(F)c3)n2)c1 [Compound 193, N-(3-fluorophenyl)-4-(4-methoxypyridin-2-yl)pyrimidin-2-amine]
31 | < 0.2 µM | < 0.2 µM | FC(F)(F)c1cccc(Nc2cc(-c3ccc4nc[nH]c4c3)ccn2)n1 [Compound 281, N-(4-(1H-benzo[d]imidazol-6-yl)pyridin-2-yl)-6-(trifluoromethyl)pyridin-2-amine]
32 | 1 to 10 µM | 1 to 10 µM | COc1ccc(-c2ccnc(Nc3cccc(C(F)(F)F)c3)n2)cn1 [Compound 212, 4-(6-methoxypyridin-3-yl)-N-(3-(trifluoromethyl)phenyl)pyrimidin-2-amine]
33 | 0.2 to 1 µM | 0.2 to 1 µM | FC(F)(F)c1cccc(Nc2nccc(-c3ccc4[nH]nnc4c3)n2)c1 [Compound 139, 4-(1H-Benzo[d][1,2,3]triazol-5-yl)-N-(3-(trifluoromethyl)phenyl)pyrimidin-2-amine]
34 | 1 to 10 µM | 1 to 10 µM | COc1cc(-c2ccnc(Nc3cccc(C(C)(C)C)c3)n2)ccn1 [Compound 150, N-(3-(tert-butyl)phenyl)-4-(2-methoxypyridin-4-yl)pyrimidin-2-amine]
35 | 1 to 10 µM | 1 to 10 µM | Oc1cc(-c2ccnc(Nc3cc(F)cc(F)c3)n2)ccn1 [Compound 147, 4-(2-((3,5-difluorophenyl)amino)pyrimidin-4-yl)pyridin-2-ol]
36 | 0.2 to 1 µM | 0.2 to 1 µM | CCOC(=O)CCc1cccc(Nc2nccc(-c3ccc4nc[nH]c4c3)n2)c1 [Compound 272, ethyl 3-(3-((4-(1H-benzo[d]imidazol-6-yl)pyrimidin-2-yl)amino)phenyl)propanoate]
37 | < 0.2 µM | < 0.2 µM | Cc1cccc(Nc2nccc(-c3cnc4nc[nH]c4c3)n2)c1 [Compound 136, 4-(1H-imidazo[4,5-b]pyridin-6-yl)-N-(m-tolyl)pyrimidin-2-amine]
38 | < 0.2 µM | < 0.2 µM | O=S(=O)(c1cccc(Nc2nccc(-c3ccc4[nH]cnc4c3)n2)c1)C(F)(F)F [Compound 260, 4-(1H-benzo[d]imidazol-5-yl)-N-(3-((trifluoromethyl)sulfonyl)phenyl)pyrimidin-2-amine]
39 | 10 to 100 µM | 10 to 100 µM | COc1ccc(-c2ccnc(Nc3ccccc3)n2)cn1 [Compound 239, 4-(6-methoxypyridin-3-yl)-N-phenylpyrimidin-2-amine]
40 | 0.2 to 1 µM | 0.2 to 1 µM | Oc1cc(-c2ccnc(Nc3cccc(F)c3)n2)ccn1 [Compound 242, 4-(2-((3-fluorophenyl)amino)pyrimidin-4-yl)pyridin-2-ol]
